Laboratory results taken from patent publication US8329454B2, “Device for detecting a cholinesterase-inhibiting substance comprising a hydrophilic photo-crosslinkable resin” (priority 2008, dated 2012).

System: cholinesterase
Assay: not given
Conditions: prior-art kit AT-10/AT-25 (Agriscreen Ticket 10/25) by NEOGEN; cited from earlier work

Row | Compound | detection limit
1 | CNC(=O)Oc1cccc2ccccc12 [carbaryl] | around 7.0 ppm
2 | COP(=S)(OC)Oc1nc(Cl)c(Cl)cc1Cl [chlorpyrifos-methyl] | ~1.0 ppm
3 | CCOP(=S)(OCC)Oc1nc(Cl)c(Cl)cc1Cl [chlorpyrifos] | ~0.7 ppm
4 | CCOP(=S)(OCC)Oc1cc(C)nc(C(C)C)n1 [diazinone] | ~2.0 ppm

System: cholinesterase
Assay: Visual detection with the cholinesterase detection device after on-column NBS oxidation (Example 1)
Conditions: Example 1: 10 mL aqueous sample, adsorbed on column, 1% NBS oxidation to oxon form, 5 min inhibition, indoxyl acetate 5 min, no coloration

Row | Compound | detected at a concentration level
5 | CCOP(=S)(OCC)Oc1cc(C)nc(C(C)C)n1 [diazinone] | 0.1 ppb

Same assay, conditions: Table 1, tested in the same manner as Example 1 (NBS oxidation)

Row | Compound | Detection Level (ppb)
6 | CCOP(=S)(Oc1ccc([N+](=O)[O-])cc1)c1ccccc1 (centres unmarked) [EPN] | 40 ppb
7 | CCOP(=S)(OCC)SCn1nnc2ccccc2c1=O [azinphos-ethyl] | 1 ppb
8 | COP(=S)(OC)SCn1nnc2ccccc2c1=O [azinphos-methyl] | 8 ppb
9 | CCOP(=S)(OCC)Oc1cc(Cl)c(Br)cc1Cl [bromofos-ethyl] | 10 ppb
10 | CCOP(=S)(NC(C)CC)Oc1cc(C)ccc1[N+](=O)[O-] (centres unmarked) [butamifos] | 100 ppb
11 | CCOP(=O)(OCC)O/C(=C\Cl)c1ccc(Cl)cc1Cl [chlorfenvinphos] | 40 ppb
12 | COP(=S)(OC)Oc1nc(Cl)c(Cl)cc1Cl [chlorpyrifos-methyl] | 1 ppb
13 | CCOP(=S)(OCC)Oc1nc(Cl)c(Cl)cc1Cl [chlorpyrifos] | 0.2 ppb
14 | CCOP(=S)(OCC)Oc1ccc2c(C)c(Cl)c(=O)oc2c1 [coumafos] | 2 ppb
15 | CCOP(=S)(OCC)Oc1ccc(Cl)cc1Cl [dichlofenthion] | 100 ppb
16 | COP(=O)(OC)O/C(=C/Cl)c1ccc(Cl)cc1Cl [dimethylvinphos(E)] | 100 ppb
17 | COP(=O)(OC)O/C(=C\Cl)c1ccc(Cl)cc1Cl [dimethylvinphos(Z)] | 100 ppb
18 | CCOP(=S)(OCC)SCSP(=S)(OCC)OCC [ethion] | 10 ppb
19 | CCCSP(=O)(OCC)SCCC [etoprophos] | 100 ppb
20 | COP(=S)(OC)Oc1ccc([N+](=O)[O-])c(C)c1 [fenitrothion] | 40 ppb
21 | CCOP(=S)(OCC)Oc1ccc([S+](C)[O-])cc1 (centres unmarked) [fensulfothion] | 100 ppb
22 | CCOP(=S)(OCC)Oc1cc(-c2ccccc2)on1 [isoxathion] | 0.2 ppb
23 | CNC(=O)/C=C(\C)OP(=O)(OC)OC [monocrotophos] | 100 ppb
24 | CCOP(=S)(OCC)Oc1ccc([N+](=O)[O-])cc1 [parathion] | 0.8 ppb
25 | CCOP(=S)(OCC)SCSCC [phorate] | 80 ppb
26 | CCOP(=S)(OCC)SCn1c(=O)oc2cc(Cl)ccc21 [phosalone] | 6 ppb
27 | CCCOP(=O)(OCCC)Oc1ccc(SC)cc1 [propafos] | 1 ppb
28 | CCOP(=S)(OCC)Oc1ccc(=O)n(-c2ccccc2)n1 [pyridaphenthion] | 1 ppb
29 | CCN(CC)c1nc(C)cc(OP(=S)(OC)OC)n1 [pyrimiphos-methyl] | 20 ppb
30 | CCOP(=S)(OCC)Oc1cnc2ccccc2n1 [quinalphos] | 0.1 ppb
31 | COP1(=S)OCc2ccccc2O1 (centres unmarked) [salithion] | 100 ppb
32 | CCCSP(=S)(OCC)Oc1ccc(SC)cc1 (centres unmarked) [sulprofos] | 20 ppb
33 | CCOP(=S)(OCC)SCSC(C)(C)C [terbufos] | 10 ppb
34 | etorifos | 10 ppb

System: cholinesterase
Assay: Visual detection with the cholinesterase detection device without oxidation treatment (Comparative Example 1, Example 2)
Format: biochemical
Conditions: Comparative Example 1: as Example 1 but no oxidation treatment (no NBS)
Description: This is a comparative experiment for confirming the effect of oxidation treatment (NBS solution suction treatment) in Example 1. In the same manner as in Example 1, the column was made to adsorb diazinone in the sample, and then not processed for oxidation treatment (NBS solution suction treatment), diazinone was eluted from the column. The eluate was added to the detection device, and an indoxyl acetate solution was added to the device.
The detection method was to follow the process shown in FIG. 3; however, since a carbamate agrichemical was the object to be detected, the NBS solution suction and discharge operation attained in Example 1 was omitted here.
As a sample, prepared was 10 mL of an aqueous solution of a carbaryl (NAC) standard liquid of a carbamate agrichemical having a diluted concentration of 10 ppb; and this was sucked in the syringe with a column chip connected to the tip thereof, as shown in FIG. 2.
The sucked solution was discharged in a beaker and again sucked, and this cycle was repeated three times whereby the sample NAC was adsorbed by the column. Subsequently, NAC was eluted from the column, and put into the device to undergo an enzyme inhibitory reaction for 5 minutes therein.
After 5 minutes, a coloring substrate of an indoxyl acetate solution was added to the device, and underwent coloration reaction for 5 minutes.
Other agrichemical substances were tested in the same manner as in Example 1 and Example 2, and the following results were obtained.

Row | Compound | detection level
35 | CCOP(=S)(OCC)Oc1cc(C)nc(C(C)C)n1 [diazinone] | 5 ppm

Same assay, conditions: Example 2: 10 mL aqueous sample, adsorbed on column, no NBS step, 5 min inhibition, indoxyl acetate 5 min, no coloration

Row | Compound | detected at a concentration level
36 | CNC(=O)Oc1cccc2ccccc12 [carbaryl] | 10 ppb

Same assay, conditions: Table 1, agrichemicals marked *, taken as tested in the same manner as Example 2 (no NBS oxidation)

Row | Compound | Detection Level (ppb)
37 | Cc1nc(N(C)C)nc(OC(=O)N(C)C)c1C [pirimicarb] | 8 ppb
38 | CS/C(C)=N\OC(=O)N(C)SN(C)C(=O)O/N=C(\C)SC [thiodicarb] | 20 ppb
